Experiments:
[1] = system: signal molecule production (HHQ, PQS); conditions: at 15 μM; cited from earlier work
[2] = system: virulence factor pyocyanin production; conditions: in cellulo; read-out: inhibition of virulence factor pyocyanin production IC50; cited from earlier work
PqsR = biological target: T1, PqsR (Pseudomonas aeruginosa, UniProt Q9I4X0); experiment: PqsR inverse agonistic activity, reporter gene assay in E. coli; format: cell-based
T1 construct: expressed in transfected cells; host or cells: Escherichia coli DH5a carrying pEAL08-2
T1 sequence (Q9I4X0 whole entry): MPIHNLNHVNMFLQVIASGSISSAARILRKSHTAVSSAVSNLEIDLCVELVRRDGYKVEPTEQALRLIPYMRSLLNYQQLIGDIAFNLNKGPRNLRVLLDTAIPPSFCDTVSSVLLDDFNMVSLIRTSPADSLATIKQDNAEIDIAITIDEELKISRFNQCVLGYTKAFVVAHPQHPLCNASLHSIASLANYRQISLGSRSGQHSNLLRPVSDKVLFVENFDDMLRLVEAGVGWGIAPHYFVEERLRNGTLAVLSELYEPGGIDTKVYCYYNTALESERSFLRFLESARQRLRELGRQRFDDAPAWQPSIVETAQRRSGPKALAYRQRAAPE
Description: Inhibition of pqsR-dependent gene expression of test compounds was determined in an E. coli based-galactosidase reporter gene assay. Escherichia coli DH5a was transfected with pEAL08-2 plasmid encoding pqsR under control of promoter tac and β-galactosidase reporter gene lacZ under control of promoter pqsA. Antagonistic effects of compounds were evaluated in the presence of/in competition to 50 nM PQS. A positive control was used to ensure the reliability of individual assays. First, PQS was diluted in methanol and added to the wells of a glass coated 96-deep-well plate, and the solvent was evaporated. Then, compounds were added in 5 μL DMSO to final concentrations of 0.001-10 μM. Overnight cultures of E. coli DH5a×pEAL08-2 were diluted 1:100 in LB medium with ampicillin (50 μg/ml) and incubated at 37° C. with shaking until it reached an OD600 of 0.2. Finally, 995 μL of culture was added to each well and the β-galactosidase activity was determined by ortho-nitrophenyl-β-galactoside conversion in permeabilized cells after a 2.5 h incubation period (37° C., 180 rpm). OD600, OD420, and OD550 were measured using POLARstar Omega (BMG Labtech, Ortenberg, Germany), and the activity was expressed as ratio of the slope of B-galactosidase activity between basal control (no PQS) and solvent control. IC50 values of antagonists were determined by variation of the concentration of the test compounds.

[3] = system: P. aeruginosa pyocyanin production; experiment: Pyocyanin assay; format: cell-based; conditions: Pseudomonas aeruginosa, PA14, 16 h, read-out: IC50-value towards pyocyanin production, PA14 in PPGAS medium, 16 h
Description: Inhibition of P. aeruginosa pyocyanin production by compounds was determined photometrically as described before. In short, an overnight culture of PA14 in PPGAS medium was washed, diluted in medium to a start OD600 of 0.02, and incubated for 16 h (37° C., 200 rpm, relative humidity 75%) in the presence of test compounds. Then, cultures were extracted with chloroform and re-extracted with 0.2 M HCl. Protonated red colored pyocyanin was determined by measuring OD520 and normalizing to OD600.

[4] = Kinetic Turbidimetric Aqueous Solubility; format: physicochemical; conditions: aqueous buffer, kinetic from dmso stock, PBS buffer, room temperature
Description: Kinetic Turbidimetric Aqueous Solubility at room temperature for 5 min. Test compound was diluted in PBS buffer to give a range of concentrations (typically 0.4, 2, 4, 20, 40, 100, and 200 μM, final DMSO concentration 2%) and incubated at room temperature for 5 min. Absorbance was measured at a wavelength of 620 nm and the solubility was estimated from the concentration of test compound that produces an increase in absorbance above the vehicle control (i.e., […]). Data was analyzed by fitting a four parameter sigmoidal function to the measured and normalized absorbances and AUC calculation providing access to Log S (decadic logarithm of the solubility).

[5] = Metabolic stability in mouse liver microsomes (MLM); format: in vitro ADME; conditions: 1 μM compound, 0.5 mg/mL MLM, 1 mM NADPH, 37° C., read-out: half-life (t1/2) towards MLM
Description: For the evaluation of phase I metabolic stability, the compound (1 μM) was incubated with 0.5 mg/mL MLM (Corning) and 1 mM NADPH at 37° C. for 0, 5, 10, 15 and 30 min. The metabolic stability of Verapamil, Diphenhydramine and Benzydamine (1 μM each) were determined in parallel to confirm the enzymatic activity of the MLM. The incubation was stopped by addition of 2 volumes of acetonitrile containing internal standard (1 μM Leucine Enkephaline). Samples were centrifuged (15 min, 3,500 rpm). Concentration of the remaining test compound at the different time points was analyzed by HPLC-MS/MS and used to determine half-life (t1/2).

[6] = system: production of signal molecules HHQ and PQS; conditions: QS inhibitors targeting PqsA; read-out: IC50, reduction of production of signal molecules HHQ and PQS; cited from earlier work

## CCCCCCCc1[nH]c2ccc([N+](=O)[O-])cc2c(=O)c1C(N)=O [2-heptyl-6-nitro-4-oxo-1,4-dihydroquinoline-3-carboxamide]
[1]
  reduction of HHQ production: 54%
  reduction of PQS production: 37%
[2]
  IC50: 2000 nM

## Fc1ccc(Nc2ccc3[nH]c(CSc4ccnc(C(F)(F)F)c4)nc3c2)c(F)c1 [Compound 45]
PqsR
  IC50: ≤ 50 nM
[3]
  IC50: 101 to 200 nM
[4]
  solubility at 5 min: > 25 µM
[5]
  half-life at 1 μM: > 1 h

## Nc1cccc(F)c1C(=O)O [Compound 6FABA]
[6]
  IC50: ~100000 nM

## NC(=O)c1cccc(Nc2ccc3[nH]c(CSc4ccnc(C(F)(F)F)c4)nc3c2)c1 [Compound 36]
PqsR
  IC50: 251 to 1000 nM
[4]
  solubility at 5 min: > 50 µM
[5]
  half-life at 1 μM: 0.517 to 1 h

## FC(F)c1cccc(Nc2ccc3[nH]c(CSc4ccnc(C(F)(F)F)c4)nc3c2)c1 [Compound 37]
PqsR
  IC50: ≤ 50 nM
[3]
  IC50: 101 to 200 nM
[4]
  solubility at 5 min: > 10 µM
[5]
  half-life at 1 μM: > 1 h

## O=[N+]([O-])c1cc(-c2ncc(CNc3cc(Cl)nc(C(F)(F)F)c3)cn2)ccc1Cl [Compound 08]
[3]
  IC50: 101 to 200 nM
[4]
  solubility at 5 min: > 10 µM
[5]
  half-life at 1 μM: > 1 h

## O=[N+]([O-])c1cccc(-c2ncc(CNc3cc(Cl)nc(C(F)(F)F)c3)cn2)c1 [Compound 09]
[3]
  IC50: 201 to 500 nM
[4]
  solubility at 5 min: > 10 µM
[5]
  half-life at 1 μM: 0.517 to 1 h
